Source: patent US10702506B2, “Small molecule inhibitors of pendrin ion exchange and pharmaceutical compositions” (THE REGENTS OF THE UNIVERSITY OF CALIFORNIA, priority 2016, dated 2020)

Experiments:
[1] = tested on: mice (CD-1 and C57Bl/6); test: Acute furosemide diuresis model in mice; type: in vivo
Protocol: (§1) Pharmacokinetics measurements were done to guide studies of diuretic efficacy. Animal experiments were approved by UCSF Institutional Animal Care and Use Committee. Female CD1 mice (8-10 weeks) were injected with 10 mg/kg PDSinh-C01 (in saline containing 5% DMSO and 10% Kolliphor HS) ip and blood was collected by orbital puncture at 15, 30, 60, 150 and 240 min, and centrifuged at 5000 rpm for 15 min to separate plasma. Urine was collected in metabolic cages. An LC/MS method was developed to measure PDSinh-C01 concentrations in mouse blood and urine. Plasma and urine samples (60 μL) were mixed with 300-μL acetonitrile and centrifuged at 13000 rpm for 20 min, and 90 μL of the supernatant was taken for liquid chromatography/mass spectrometry (LC/MS; Waters 2695 and Micromass ZQ). […] Sodium and potassium concentrations in 3-h collected urine samples were measured by flame photometry (PFP7 Clinical Flame Photometer, Bibby Scientific Ltd, Stone. Staffs, UK). […] Blood gas was analyzed by iSTAT1 with CG4+ cartridges (Abbott Laboratories, Abbott Park, IL, USA). Urine pH was measured on freshly collected urine samples using an AB 15 pH Meter (Fisher Scientific, Pittsburgh, Pa., USA). Experiments with two groups were analyzed with Student's t-test, and experiments with 3 or more groups were analyzed using one-way analysis of variance and post-hoc Newman-Keuls multiple comparisons test. […]

[2] = Pharmacokinetics in mice, LC/MS of plasma and urine; type: in vivo; details: 10 mg/kg bolus ip
Protocol: as §1

In the case of `Cc1n[nH]c(-c2cc(S(=O)(=O)NC3CCCc4ccccc43)c(C)s2)c1C` (stereo not shown) [PDSinh-C01], the “increase in urine volume” value ([1]; 10 mg/kg ip with furosemide 5-50 mg/kg, 3 h urine) is reported as roughly 30%, the “3-h urinary K+ excretion” value ([1]; with furosemide) is reported as “no significant effect” and the concentration in plasma [2] is reported as “predicted therapeutic concentrations for several hours”. For the same compound, the concentration in urine [2] was “predicted therapeutic concentrations for several hours”.
